{"source": "patent US8729122B2", "about": "“Pharmaceutical and nutraceutical compositions of abscisic acid” (Valent BioSciences Corporation, priority 2010, dated 2014)", "test_system": "rats", "experiment": "Two Generation Reproduction Toxicity Study (dietary S-ABA)", "type": "in vivo", "conditions": "for SPLEEN WEIGHT, % DIFFERENCE: versus 0 PPM", "description": "Two Generation Reproduction Toxicity Study\nThis study was conducted to determine the potential adverse effects of the test substance on reproduction in a 2-generation study. This included determining the effects of the test substance on male and female reproductive processes, including gonadal function, estrous cyclicity, mating behavior, conception, gestation, parturition, lactation, weaning, and on growth and development of the offspring. A minimum of 1 litter was produced in each generation.\nThree groups of male and female were offered S-ABA, continuously in the diet for at least 70 consecutive days prior to mating. Target tests substance concentrations were 10,000, 15,000, and 20,000 ppm for the F0 and F1 generations. A concurrent control group of 30 rats/sex was offered the basal diet continuously throughout the study. F0 animals were approximately 7 weeks of age at the initiation of test diet administration. The test diet was administered to the offspring selected to become the F1 generation following weaning. The F0 and F1 males continued to receive the test substance throughout mating and continuing through the day prior to euthanasia. The F0 and F1 females continued to receive the test substance throughout mating, gestation, and lactation, and through the day of euthanasia. For both generations (F1 and F2), 8 pups per litter (4 per sex, when possible) were selected to reduce the variability among the litters. Offspring (30/sex/group, if possible) from the pairing of the F0 animals were selected to constitute the F1 generation.\nAll animals were observed twice daily for appearance and behavior. Clinical observations, body weights, and food consumption were recorded at appropriate intervals for males throughout the study and for females prior to mating and during gestation and lactation. All F0 and F1 females were allowed to deliver and rear their pups until weaning on lactation day 21. Clinical observations, body weights, and sexes for F1 and F2 pups were recorded at appropriate intervals. Nonselected F1 pups and all surviving F2 pups were necropsied. Selected organs were weighed from 1 pup/sex/litter from F1 and F2 pups that were necropsied. Each surviving F0 and F1 parental animal received a complete detailed gross necropsy following the completion of weaning of the F1 and F2 pups, respectively; selected organs were weighed. Spermatogenic endpoints were recorded for all F0 and F1 males, and ovarian primordial follicle counts were recorded for all F0 and F1 females in the control and high-exposure groups and all F0 and F1 females suspected of reduced fertility. Designated tissues from all F0 and F1 parental animals were examined microscopically.", "key": {"[1]": {"conditions": "second generation pups, 10,000 PPM"}, "[2]": {"conditions": "second generation pups, 15,000 PPM"}, "[3]": {"conditions": "second generation pups, 20,000 PPM"}}}
{"smiles": "CC1=CC(=O)CC(C)(C)[C@@]1(O)/C=C/C(C)=C\\C(=O)O", "note": "[S-ABA, (S)-(+)-abscisic acid]", "values": [{"measurement": "POSTNATAL SURVIVAL, POSTNATAL DAY 7-14, mean", "setting": "15,000 ppm", "result": 98.7, "unit": "% PER LITTER"}, {"measurement": "POSTNATAL SURVIVAL, POSTNATAL DAY 14-21, mean", "setting": "15,000 ppm", "result": 100.0, "unit": "% PER LITTER"}, {"measurement": "OFFSPRING WEIGHT, mean", "setting": "15,000 ppm, female, postnatal day 1", "result": 6.6, "unit": "grams"}, {"measurement": "OFFSPRING WEIGHT, mean", "setting": "15,000 ppm, female, postnatal day 4", "result": 8.8, "unit": "grams"}, {"measurement": "OFFSPRING WEIGHT, mean", "setting": "15,000 ppm, female, postnatal day 7", "result": 14.0, "unit": "grams"}, {"measurement": "OFFSPRING WEIGHT, mean", "setting": "15,000 ppm, female, postnatal day 14", "result": 29.8, "unit": "grams"}, {"measurement": "OFFSPRING WEIGHT, mean", "setting": "15,000 ppm, female, postnatal day 21", "result": 45.8, "unit": "grams"}, {"measurement": "OFFSPRING WEIGHT, mean", "setting": "15,000 ppm, male, postnatal day 1", "result": 6.9, "unit": "grams"}, {"measurement": "OFFSPRING WEIGHT, mean", "setting": "15,000 ppm, male, postnatal day 4", "result": 9.3, "unit": "grams"}, {"measurement": "OFFSPRING WEIGHT, mean", "setting": "15,000 ppm, male, postnatal day 7", "result": 14.7, "unit": "grams"}, {"measurement": "OFFSPRING WEIGHT, mean", "setting": "15,000 ppm, male, postnatal day 14", "result": 30.8, "unit": "grams"}, {"measurement": "OFFSPRING WEIGHT, mean", "setting": "15,000 ppm, male, postnatal day 21", "result": 47.8, "unit": "grams"}, {"measurement": "SPERM PRODUCTION RATE, mean", "setting": "20,000 PPM", "result": 10.5, "unit": "MILLIONS/GRAM/DAY"}, {"measurement": "Mean Live Offspring Born (per litter)", "setting": "20,000 ppm", "result": 12.3}, {"measurement": "Offspring Born", "setting": "20,000 ppm", "result": 327}, {"measurement": "Offspring FOUND DEAD", "setting": "20,000 ppm", "result": 11}, {"measurement": "POSTNATAL SURVIVAL, BIRTH-4 (PRE-SELECT), mean", "setting": "20,000 ppm", "result": 96.8, "unit": "% PER LITTER"}, {"measurement": "POSTNATAL SURVIVAL, POSTNATAL DAY 0 (RELATIVE TO # BORN), mean", "setting": "20,000 ppm", "result": 98.5, "unit": "% PER LITTER"}, {"measurement": "POSTNATAL SURVIVAL, POSTNATAL DAY 0-1, mean", "setting": "20,000 ppm", "result": 99.7, "unit": "% PER LITTER"}, {"measurement": "POSTNATAL SURVIVAL, POSTNATAL DAY 1-4 (PRE-SELECTION), mean", "setting": "20,000 ppm", "result": 98.5, "unit": "% PER LITTER"}, {"measurement": "POSTNATAL SURVIVAL, POSTNATAL DAY 4 (POST-SELECT)-21, mean", "setting": "20,000 ppm", "result": 98.0, "unit": "% PER LITTER"}, {"measurement": "POSTNATAL SURVIVAL, POSTNATAL DAY 4 (POST-SELECTION)-7, mean", "setting": "20,000 ppm", "result": 98.5, "unit": "% PER LITTER"}, {"measurement": "POSTNATAL SURVIVAL, POSTNATAL DAY 7-14, mean", "setting": "20,000 ppm", "result": 99.5, "unit": "% PER LITTER"}, {"measurement": "POSTNATAL SURVIVAL, POSTNATAL DAY 14-21, mean", "setting": "20,000 ppm", "result": 100.0, "unit": "% PER LITTER"}, {"measurement": "OFFSPRING WEIGHT, mean", "setting": "20,000 ppm, female, postnatal day 1", "result": 6.6, "unit": "grams"}, {"measurement": "OFFSPRING WEIGHT, mean", "setting": "20,000 ppm, female, postnatal day 4", "result": 8.8, "unit": "grams"}, {"measurement": "OFFSPRING WEIGHT, mean", "setting": "20,000 ppm, female, postnatal day 7", "result": 14.5, "unit": "grams"}, {"measurement": "OFFSPRING WEIGHT, mean", "setting": "20,000 ppm, female, postnatal day 14", "result": 30.5, "unit": "grams"}, {"measurement": "OFFSPRING WEIGHT, mean", "setting": "20,000 ppm, female, postnatal day 21", "result": 46.6, "unit": "grams"}, {"measurement": "OFFSPRING WEIGHT, mean", "setting": "20,000 ppm, male, postnatal day 1", "result": 7.0, "unit": "grams"}, {"measurement": "OFFSPRING WEIGHT, mean", "setting": "20,000 ppm, male, postnatal day 4", "result": 9.3, "unit": "grams"}, {"measurement": "OFFSPRING WEIGHT, mean", "setting": "20,000 ppm, male, postnatal day 7", "result": 15.1, "unit": "grams"}, {"measurement": "OFFSPRING WEIGHT, mean", "setting": "20,000 ppm, male, postnatal day 14", "result": 31.2, "unit": "grams"}, {"measurement": "OFFSPRING WEIGHT, mean", "setting": "20,000 ppm, male, postnatal day 21", "result": 48.1, "unit": "grams"}, {"measurement": "OVARIAN PRIMORDIAL FOLLICLE COUNTS, mean", "setting": "females, 10,000 PPM", "result": 257.5}, {"measurement": "OVARIAN PRIMORDIAL FOLLICLE COUNTS, mean", "setting": "females, 15,000 PPM", "result": 214.0}, {"measurement": "OVARIAN PRIMORDIAL FOLLICLE COUNTS, mean", "setting": "females, 20,000 PPM", "result": 270.3}, {"measurement": "PROSTATE WEIGHT, ORGAN WEIGHT, mean", "setting": "male rats, 10,000 ppm in diet", "result": 1.08, "unit": "GRAMS"}, {"measurement": "PROSTATE WEIGHT, ORGAN WEIGHT, mean", "setting": "male rats, 15,000 ppm in diet", "result": 1.13, "unit": "GRAMS"}, {"measurement": "PROSTATE WEIGHT, ORGAN WEIGHT, mean", "setting": "male rats, 20,000 ppm in diet", "result": 1.09, "unit": "GRAMS"}, {"measurement": "SPLEEN WEIGHT, mean", "setting": "males, 10,000 PPM", "result": 0.98, "unit": "GRAMS"}, {"measurement": "SPLEEN WEIGHT, % DIFFERENCE", "setting": "males, 10,000 PPM", "result": "−2.0", "unit": "%"}, {"measurement": "SPLEEN WEIGHT, mean", "setting": "males, 15,000 PPM", "result": 0.97, "unit": "GRAMS"}, {"measurement": "SPLEEN WEIGHT, % DIFFERENCE", "setting": "males, 15,000 PPM", "result": "−3.0", "unit": "%"}, {"measurement": "SPLEEN WEIGHT, mean", "setting": "males, 20,000 PPM", "result": 0.92, "unit": "GRAMS"}, {"measurement": "SPLEEN WEIGHT, % DIFFERENCE", "setting": "males, 20,000 PPM", "result": "−8.9", "unit": "%"}, {"measurement": "impact of prostate weight reduction on sperm production", "setting": "rats, two-generation study", "result": "no impact on sperm production"}, {"measurement": "SPLEEN WEIGHT, mean", "setting": "[1]", "result": 0.1989, "unit": "GRAMS"}, {"measurement": "SPLEEN WEIGHT, % DIFFERENCE", "setting": "[1]", "result": "−14.8", "unit": "%"}, {"measurement": "SPLEEN WEIGHT, mean", "setting": "[2]", "result": 0.1918, "unit": "GRAMS"}, {"measurement": "SPLEEN WEIGHT, % DIFFERENCE", "setting": "[2]", "result": "−17.8", "unit": "%"}, {"measurement": "SPLEEN WEIGHT, mean", "setting": "[3]", "result": 0.1979, "unit": "GRAMS"}, {"measurement": "SPLEEN WEIGHT, % DIFFERENCE", "setting": "[3]", "result": "−15.2", "unit": "%"}]}
